How the values were obtained:
Assay in all cases: differential drug sensitivity score (dDSS) relative to sarcoma reference cohort mean DSS (DSS units (0-100 scale difference)); higher = more selective sensitivity than reference sarcomas
Conditions in all cases: exposure time: 72 h; concentration range: 10-10000 nM
ES-ZH009 = system: ES-ZH009 (patient-derived Ewing sarcoma tumoroid)
Description: (§1)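 Drug response profiling of patient-derived Ewing sarcoma and CIC::DUX4 sarcoma tumoroid models (or cells tested directly after isolation from the tumor, 'direct'). The DSS is the normalised AUC (0-100); dDSS is the sample DSS minus the mean DSS of a 34-sarcoma reference cohort profiled in the same lab.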

ES-ZH016 direct = system: ES-ZH016 direct (Ewing sarcoma cells right after isolation)
Description: as §1

CDS-ZH001-2 = system: CDS-ZH001-2 (patient-derived CIC-DUX4 sarcoma tumoroid)
Description: as §1

CDS-ZH002 = system: CDS-ZH002 (patient-derived CIC-DUX4 sarcoma tumoroid)
Description: as §1

ES-ZH004 = system: ES-ZH004 (patient-derived Ewing sarcoma tumoroid)
Description: as §1

ES-ZH008 = system: ES-ZH008 (patient-derived Ewing sarcoma tumoroid)
Description: as §1

ES-ZH002 = system: ES-ZH002 (patient-derived Ewing sarcoma tumoroid)
Description: as §1

ES-ZH016 = system: ES-ZH016 (patient-derived Ewing sarcoma tumoroid)
Description: as §1

ES-ZH007 = system: ES-ZH007 (patient-derived Ewing sarcoma tumoroid)
Description: as §1

ES-ZH001 = system: ES-ZH001 (patient-derived Ewing sarcoma tumoroid)
Description: as §1

CDS-ZH003 = system: CDS-ZH003 (patient-derived CIC-DUX4 sarcoma tumoroid)
Description: as §1

CDS-ZH002 direct = system: CDS-ZH002 direct (CIC-DUX4 sarcoma cells right after isolation)
Description: as §1

CDS-ZH001 = system: CDS-ZH001 (patient-derived CIC-DUX4 sarcoma tumoroid)
Description: as §1

Row | SMILES | differential drug sensitivity score (ES-ZH009) | differential drug sensitivity score (ES-ZH016 direct) | differential drug sensitivity score (CDS-ZH001-2) | differential drug sensitivity score (CDS-ZH002) | differential drug sensitivity score (ES-ZH004) | differential drug sensitivity score (ES-ZH008) | differential drug sensitivity score (ES-ZH002) | differential drug sensitivity score (ES-ZH016) | differential drug sensitivity score (ES-ZH007) | differential drug sensitivity score (ES-ZH001) | differential drug sensitivity score (CDS-ZH003) | differential drug sensitivity score (CDS-ZH002 direct) | differential drug sensitivity score (CDS-ZH001)
1 | COc1cc(OC)cc(N(CCNC(C)C)c2ccc3ncc(-c4cnn(C)c4)nc3c2)c1 [Erdafitinib] | -1.7 | 12.1 | -0.4 | -4 | 5 | 10.1 | 7.8 | -3.7 | -2.5 | -2.3 | -8 | -4.5 | -1.4
2 | CCN1CCN(Cc2ccc(Nc3ncc(F)c(-c4cc(F)c5nc(C)n(C(C)C)c5c4)n3)nc2)CC1 [Abemaciclib] | 6.4 | -2.7 | -2.7 | -2.7 | 10.4 | 10.7 | 14.7 | 1.5 | 5.7 | 8.8 | -2.7 | 2.2 | -2.4
3 | CO[C@H]1C[C@@H]2CC[C@@H](C)[C@@](O)(O2)C(=O)C(=O)N2CCCC[C@H]2C(=O)O[C@H]([C@H](C)C[C@@H]2CC[C@@H](OCCO)[C@H](OC)C2)CC(=O)[C@H](C)/C=C(\C)[C@@H](O)[C@@H](OC)C(=O)[C@H](C)C[C@H](C)/C=C/C=C/C=C/1C [Everolimus] | 9.3 | -7 | -3.9 | -7.4 | 12 | 4.8 | 13.6 | -3.5 | 9.6 | 5.3 | -3.3 | -6.4 | -5.3
4 | NC(=O)C1CCCc2c1[nH]c1ccc(Cl)cc21 (stereo unspecified) [Selisistat] | -0.7 | -1.3 | -1.3 | -0.9 | -1.3 | 8.9 | -1 | -0.9 | -1.4 | -1.4 | -2 | -1.4 | -0.5
5 | CCN(CC)CCCC(C)Nc1nc(C)cc(Nc2ccc3nc(C)cc(N)c3c2)n1 (stereo unspecified) | -0.9 | -1 | 9.7 | 1.1 | 1.1 | -1 | 0.7 | -1 | 0.4 | -1 | -1 | 2.8 | -0.8
6 | CN(C)Cc1c(C(=O)NCCOc2ccc(C(=O)NO)cc2)oc2ccccc12 [Abexinostat] | 10.5 | 2.4 | 4.2 | 0.1 | 3.2 | 9.6 | 3.9 | 4.3 | 4.9 | 5.3 | -11.2 | -0.7 | -3.5
7 | Cc1ccc(C(=O)Nc2ccc(CN3CCN(C)CC3)c(C(F)(F)F)c2)cc1C#Cc1cnc2cccnn12 [Ponatinib] | 0.2 | 7.8 | -3.9 | -3.6 | 0.5 | 3.2 | 10 | -3.6 | -2.6 | 5.6 | -0.9 | -3.1 | -6.2

— the supplement of paper PMC12370961
